These results are taken from patent US20240010640A1, “ANTAGONISTS OF THE MUSCARINIC ACETYLCHOLINE RECEPTOR M4” (Vanderbilt University, priority 2020, published 2024).

pIC50: −log10 of the molar value.

For this test, the target named is T1, Human M4 (Homo sapiens, UniProt P08173).
T1 construct: Human or rat M4 cDNA, along with the chimeric G protein Gqi5, were transfected into Chinese hamster ovary (CHO-K1) cells; expressed in transfected cells; host or cells: CHO-K1 (Chinese hamster ovary, ATCC), stably expressing M4 and Gqi5
T1 sequence (P08173 1-479): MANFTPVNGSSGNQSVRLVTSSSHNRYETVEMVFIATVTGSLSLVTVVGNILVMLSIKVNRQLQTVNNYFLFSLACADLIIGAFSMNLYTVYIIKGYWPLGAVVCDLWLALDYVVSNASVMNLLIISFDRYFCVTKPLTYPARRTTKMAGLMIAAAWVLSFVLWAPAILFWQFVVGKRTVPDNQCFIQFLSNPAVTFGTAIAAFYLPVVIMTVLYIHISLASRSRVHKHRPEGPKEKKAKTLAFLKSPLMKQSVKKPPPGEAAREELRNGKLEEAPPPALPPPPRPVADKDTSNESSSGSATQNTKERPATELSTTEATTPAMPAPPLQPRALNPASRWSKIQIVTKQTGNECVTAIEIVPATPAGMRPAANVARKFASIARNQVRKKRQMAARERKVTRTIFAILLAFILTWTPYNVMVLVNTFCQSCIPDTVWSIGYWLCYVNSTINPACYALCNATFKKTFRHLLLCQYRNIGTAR
Briefly: mAChR M4 cell-based functional assay (calcium flux, antagonist mode). To be noted: for pIC50: Human M4/Gqi5 CHO-K1 cells, decrease of acetylcholine response; for Emin (% ACh maximum at 30 μM): Human M4. As for the experimental part: Human or rat M4 cDNA, along with the chimeric G protein Gqi5, were transfected into Chinese hamster ovary (CHO-K1) cells purchased from the American Type Culture Collection using Lipofectamine2000. M4/Gqi5/CHO cells were grown in Ham's F-12 medium containing 10% heat-inactivated fetal bovine serum (FBS), 20 mM HEPES, 500 μg/mL G418 sulfate, and 200 μg/mL Hygromycin B.
For high throughput measurement of agonist-evoked increases in intracellular calcium, CHO-K1 cells stably expressing muscarinic receptors were plated in growth medium lacking G418 and hygromycin at 15,000 cells/20 μL/well in Greiner 384-well black-walled, tissue culture (TC)-treated, clear-bottom plates (VWR). Cells were incubated overnight at 37° C. and 5% CO2. The next day, cells were washed using an ELX 405 (BioTek) with assay buffer; the final volume was then aspirated to 20 μL. Next, 20 μL of a 2.3 μM stock of Fluo-4/acetoxymethyl ester (Invitrogen, Carlsbad, CA), prepared as a 2.3 mM stock in DMSO and mixed in a 1:1 ratio with 10% (w/v) Pluronic F-127 and diluted in assay buffer, was added to the wells and the cell plates were incubated for 50 min at 37° C. and 5% CO2. Dye was removed by washing with the ELX 405 and the final volume was aspirated to 20 μL. Compound master plates were formatted in a 10 point concentration-response curve (CRC) format (1:3 dilutions) in 100% DMSO with a starting concentration of 10 or 1 mM using a BRAVO liquid handler (Agilent). Test compound CRCs were then transferred to daughter plates (240 nL) using the Echo acoustic plate reformatter (Labcyte, Sunnyvale, CA) and then diluted into assay buffer (40 μL) to a 2× stock using a Thermo Fisher Combi (Thermo Fisher Scientific, Waltham, MA).
Calcium flux was measured using the Functional Drug Screening System (FDSS) 6000 or 7000 (Hamamatsu Corporation, Tokyo, Japan) as an increase in the fluorescent static ratio. Compounds were applied to cells (20 μL, 2×) using the automated system of the FDSS at 2 seconds into the protocol and the data were collected at 1 Hz. At 143 s, 10 μL of an EC20 concentration of the muscarinic receptor agonist acetylcholine was added (5×), followed by the addition of 12 μL of an […] concentration of acetylcholine at the 268 s time point (5×). Agonist activity was analyzed as a concentration-dependent increase in calcium mobilization upon compound addition. Positive allosteric modulator activity was analyzed as a concentration-dependent increase in the EC20 acetylcholine response. Antagonist activity was analyzed as a concentration-dependent decrease in the EC80 acetylcholine response; for the purposes of the tables herein, an IC50 (inhibitory concentration 50) was calculated as a concentration-dependent decrease of the response elicited by an […] concentration of acetylcholine. Concentration-response curves were generated using a four-parameter logistical equation in XLFit curve fitting software (IDBS, Bridgewater, NJ) for Excel (Microsoft, Redmond, WA) or Prism (GraphPad Software, Inc., San Diego, CA) or the Dotmatics software platform (Dotmatics, Bishop's Stortford, UK).
Compounds were synthesized as described above. Activity (IC50 and Emin) was determined in the mAChR M4 cell-based functional assay as described above and the data are shown in Table 1.
Background: A change in cytosolic calcium serves as a functional read-out for many receptors and channels.

Turning to `[2H]C([2H])(C1CCOCC1)N1C[C@H]2C[C@H](Nc3ccc(-c4cccn(C)c4=O)nn3)C[C@H]2C1` [A3, 1-methyl-3-(6-(((3aR,5s,6aS)-2-((tetrahydro-2H-pyran-4-yl)methyl-d2)octahydrocyclopenta[c]pyrrol-5-yl)amino)pyridazin-3-yl)pyridin-2(1H)-one], the negative-log IC50 (pIC50) was 8.23 and the “Emin (% ACh maximum at 30 μM)” value turned out to be 4%.
As for `Cn1cc(-c2ccc(N[C@H]3C[C@@H]4CN(CCC(C)(C)C)C[C@@H]4C3)nn2)ccc1=O` [A13, 5-(6-(((3aR,5s,6aS)-2-(3,3-dimethylbutyl)octahydrocyclopenta[c]pyrrol-5-yl)amino)pyridazin-3-yl)-1-methylpyridin-2(1H)-one], the pIC50 was 9.00 and the “Emin (% ACh maximum at 30 μM)” value is reported as 3%.
The matching figures for `Cn1cc(-c2ccc(N[C@H]3C[C@@H]4CN(CC5CCCOC5)C[C@@H]4C3)nn2)ccc1=O` (stereo partly drawn) [A10, 1-methyl-5-(6-(((3aR,5s,6aS)-2-((tetrahydro-2H-pyran-3-yl)methyl)octahydrocyclopenta[c]pyrrol-5-yl)amino)pyridazin-3-yl)pyridin-2(1H)-one]: 6.89 and 4%.
Turning to `Cn1cc(-c2ccc(N[C@H]3C[C@@H]4CN(CC5CCOCC5)C[C@@H]4C3)nn2)cnc1=O` [A7, 1-methyl-5-(6-(((3aR,5s,6aS)-2-((tetrahydro-2H-pyran-4-yl)methyl)octahydrocyclopenta[c]pyrrol-5-yl)amino)pyridazin-3-yl)pyrimidin-2(1H)-one], the pIC50 is 6.29 and the “Emin (% ACh maximum at 30 μM)” value is recorded as 7%.
The matching figures for `Cc1cc(-c2ccc(N[C@H]3C[C@@H]4CN(CC5CCOCC5)C[C@@H]4C3)nn2)cn(C)c1=O` [A16, 1,3-dimethyl-5-(6-(((3aR,5s,6aS)-2-((tetrahydro-2H-pyran-4-yl)methyl)octahydrocyclopenta[c]pyrrol-5-yl)amino)pyridazin-3-yl)pyridin-2(1H)-one]: 8.72 and 4%.
For `Cn1cc(-c2ccc(N[C@H]3C[C@@H]4CN(Cc5ccccn5)C[C@@H]4C3)nn2)ccc1=O` [A12, 1-methyl-5-(6-(((3aR,5s,6aS)-2-(pyridin-2-ylmethyl)octahydrocyclopenta[c]pyrrol-5-yl)amino)pyridazin-3-yl)pyridin-2(1H)-one] the same measures were 6.12 and 9%.
The matching figures for `Cc1cc(-c2ccc(N[C@H]3C[C@@H]4CN(CC5CCOCC5)C[C@@H]4C3)nn2)c(=O)[nH]n1` [A8, 6′-methyl-6-(((3aR,5s,6aS)-2-((tetrahydro-2H-pyran-4-yl)methyl)octahydrocyclopenta[c]pyrrol-5-yl)amino)-[3,4′-bipyridazin]-3′(2′H)-one]: 6.87 and 8%.
In the case of `Cn1cc(-c2ccc(N[C@H]3C[C@@H]4CN(CC5CCOCC5)C[C@@H]4C3)nn2)cc(F)c1=O` [A17, 3-fluoro-1-methyl-5-(6-(((3aR,5s,6aS)-2-((tetrahydro-2H-pyran-4-yl)methyl)octahydrocyclopenta[c]pyrrol-5-yl)amino)pyridazin-3-yl)pyridin-2(1H)-one], the pIC50 was 7.89 and the “Emin (% ACh maximum at 30 μM)” value came to 3%.
For `Cn1cccc(-c2cnc(N[C@H]3C[C@@H]4CN(CC5CCOCC5)C[C@@H]4C3)nc2)c1=O` [B1, 1-methyl-3-(2-(((3aR,5s,6aS)-2-((tetrahydro-2H-pyran-4-yl)methyl)octahydrocyclopenta[c]pyrrol-5-yl)amino)pyrimidin-5-yl)pyridin-2(1H)-one] the same measures were 5.47 and 10%.
The matching figures for `[2H]C([2H])(C1CCOCC1)N1C[C@H]2C[C@H](Nc3ccc(-c4ccc(=O)n(C)c4)nn3)C[C@H]2C1` [A2, 1-methyl-5-(6-(((3aR,5s,6aS)-2-((tetrahydro-2H-pyran-4-yl)methyl-d2)octahydrocyclopenta[c]pyrrol-5-yl)amino)pyridazin-3-yl)pyridin-2(1H)-one]: 7.47 and 4%.
The matching figures for `Cn1cc(C(F)(F)F)cc(-c2ccc(N[C@H]3C[C@@H]4CN(CC5CCOCC5)C[C@@H]4C3)nn2)c1=O` [A9, 1-methyl-3-(6-(((3aR,5s,6aS)-2-((tetrahydro-2H-pyran-4-yl)methyl)octahydrocyclopenta[c]pyrrol-5-yl)amino)pyridazin-3-yl)-5-(trifluoromethyl)pyridin-2(1H)-one]: 7.56 and 4%.
Take `Cn1cccc(-c2ccc(N[C@H]3C[C@@H]4CN(CC5CCOCC5)C[C@@H]4C3)nn2)c1=O` [A4, 1-methyl-3-(6-(((3aR,5s,6aS)-2-((tetrahydro-2H-pyran-4-yl)methyl)octahydrocyclopenta[c]pyrrol-5-yl)amino)pyridazin-3-yl)pyridin-2(1H)-one]: the pIC50 is 7.81 and the “Emin (% ACh maximum at 30 μM)” value came to 5%.
The matching figures for `[2H]C([2H])(C1CCOCC1)N1C[C@H]2C[C@H](Nc3ccc(-c4ccc(=O)n(CC5CC5)c4)nn3)C[C@H]2C1` [A14, 1-(cyclopropylmethyl)-5-(6-(((3aR,5s,6aS)-2-((tetrahydro-2H-pyran-4-yl)methyl-d2)octahydrocyclopenta[c]pyrrol-5-yl)amino)pyridazin-3-yl)pyridin-2(1H)-one]: 7.54 and 3%.
The matching figures for `O=c1ccc(-c2ccc(N[C@H]3C[C@@H]4CN(CC5CCOCC5)C[C@@H]4C3)nn2)cn1C(F)F` [A5, 1-(difluoromethyl)-5-(6-(((3aR,5s,6aS)-2-((tetrahydro-2H-pyran-4-yl)methyl)octahydrocyclopenta[c]pyrrol-5-yl)amino)pyridazin-3-yl)pyridin-2(1H)-one]: 8.42 and 4%.
The matching figures for `Cn1cc(-c2ccc(N[C@H]3C[C@@H]4CN(CC5CCCCC5)C[C@@H]4C3)nn2)ccc1=O` [A11, 5-(6-(((3aR,5s,6aS)-2-(cyclohexylmethyl)octahydrocyclopenta[c]pyrrol-5-yl)amino)pyridazin-3-yl)-1-methylpyridin-2(1H)-one]: 8.46 and 3%.
`O=c1ccc(-c2ccc(N[C@H]3C[C@@H]4CN(CC5CCOCC5)C[C@@H]4C3)nn2)cn1CC1CC1` [A15, 1-(cyclopropylmethyl)-5-(6-(((3aR,5s,6aS)-2-((tetrahydro-2H-pyran-4-yl)methyl)octahydrocyclopenta[c]pyrrol-5-yl)amino)pyridazin-3-yl)pyridin-2(1H)-one]: the pIC50 was 7.71 and the “Emin (% ACh maximum at 30 μM)” value is reported as 4%.

The pIC50 is the negative decadic logarithm of the IC50, by convention in mol/L.
